The values that follow come from the NIST ThermoML archive (doi:10.1016/j.fluid.2017.10.003).

Each structure is given as a SMILES string. Numbers after ± are expanded uncertainties.

What is called viscosity is the internal friction of a fluid under shear.

The conditions of the series: 101.33 kPa, Liquid.

For the compound `CCCC(=O)[O-].[NH3+]CCO` [2-hydroxy ethylammonium butanoate], the viscosity (293.15 K) stood at 2619 mPa·s; the viscosity (298.15 K) worked out at 1796 mPa·s; the viscosity (303.15 K) came out at 1260 mPa·s; the viscosity (308.15 K) is given as 904.36 mPa·s; the viscosity (313.15 K) was found to be 596.88 mPa·s; the viscosity (318.15 K) worked out at 445.06 ± 200 mPa·s. Also, the viscosity is, setting by setting: (323.15 K) 335.81 ± 130 mPa·s; (328.15 K) 256.28 ± 85 mPa·s; (333.15 K) 199.67 ± 56 mPa·s; (338.15 K) 153.8 ± 35 mPa·s; (343.15 K) 122.53 ± 22 mPa·s; (348.15 K) 98.65 ± 15 mPa·s. Besides, the viscosity is, setting by setting: (353.15 K) 80.46 ± 11 mPa·s; (358.15 K) 66.2 ± 8.7 mPa·s; (363.15 K) 53.33 ± 8 mPa·s.
As to `CC(=O)[O-].[NH3+]CCO` [2-hydroxyethylammonium acetate], the viscosity turned out to be 3073 mPa·s (293.15 K); 1974 mPa·s (298.15 K); 1306 mPa·s (303.15 K); 896.3 mPa·s (308.15 K); 624.5 mPa·s (313.15 K); 363.72 ± 150 mPa·s (318.15 K). The viscosity runs as follows: (323.15 K) 271.13 ± 93 mPa·s; (328.15 K) 203.65 ± 58 mPa·s; (333.15 K) 159.15 ± 37 mPa·s; (338.15 K) 123.69 ± 23 mPa·s; (343.15 K) 98.5 ± 14 mPa·s; (348.15 K) 79.76 ± 8.3 mPa·s. Besides, the viscosity (353.15 K) turned out to be 65.27 ± 5.6 mPa·s, the viscosity (358.15 K) was found to be 52.72 ± 4.6 mPa·s and the viscosity (363.15 K) is 43.69 ± 5 mPa·s.
Turning to `NCCO.O=CO` [2-hydroxyethylammonium formate], the viscosity by setting is: (293.15 K) 129 ± 50 mPa·s; (298.15 K) 98.49 ± 27 mPa·s; (303.15 K) 71.9 ± 11 mPa·s; (308.15 K) 56.34 ± 2.8 mPa·s; (313.15 K) 44.88 ± 4.3 mPa·s; (318.15 K) 36.53 ± 3.5 mPa·s. For the same compound, the viscosity runs as follows: (323.15 K) 30.1 ± 2.9 mPa·s; (328.15 K) 24.92 ± 2.4 mPa·s; (333.15 K) 21 ± 2.1 mPa·s; (338.15 K) 18.98 ± 1.9 mPa·s; (343.15 K) 16.3 ± 1.6 mPa·s; (348.15 K) 13.96 ± 1.4 mPa·s. The viscosity stood at 12.1 ± 1.3 mPa·s (353.15 K), 10.57 ± 1.2 mPa·s (358.15 K) and 9.3 ± 1.1 mPa·s (363.15 K).
